“And” between values parts separate entries of the source, which are not always exact repeats. Identical values can stand only once.
Columns and labels:
Assay type in all cases: in vivo
[1] = test system: Poa annua; test: Pre-emergence glasshouse pot study, seedling emergence and growth (OECD guideline); settings: for Mean Final Foliar Fresh Weights Expressed as Percentage of Untreated Controls / Mean Final Foliar Fresh Weights: Poa annua; for Mean Final Foliar Fresh Weights: 21 days after 50% emergence, untreated 0.90
Description: (§1) A study was carried out to determine the relative biological activity of the D and L isomers of Napropamide when applied pre-emergence to one monocotyledon and one dicotyledon species. Napropamide, containing 450 grammes active substance per liter (g a.s./L) formulated as a suspension concentrate and the D-isomer of Napropamide (1000 g a.s./L) were applied at a range of concentrations from 0.1575 to 1.26 kilograms of active substance per hectare (kg a.s/Ha).
(§2) EC50 values in kg a.s./Ha were calculated from the dose response data using final foliar fresh weight data for each species and was used to determine the relative biological activity of the D and L isomers of Napropamide. The methodology was based on the OECD guideline […], according to the revision of July 2006 for seedling emergence and growth. The study was conducted to GLP standards.
(§3) Seeds were sown directly into non-porous plastic pots containing the following mix of soil: 10 L of sterile loam+4 L of coarse grit (washed quartztite, nominal 4 mm)+10 L of sand. This soil mix was characterized as a sandy loam with an organic carbon content of 1.5% and pH of 7.2. Details of the plant species, number of seeds per pot and pot size are shown below. All seeds were sown 1-2 cm deep.
(§4) The highest concentration of Napropamide was prepared by measuring a calculated volume by weight and diluting with tap water to the full required volume. Lower concentrations were prepared by serial dilution with water. D-Napropamide was prepared by dissolving the calculated weight in acetone and adding water to give the full required volume in 50:50 acetone+water. Lower concentrations were prepared by serial dilution with 50:50 acetone+water. D-Napropamide dissolved completely.
(§5) The sprayer was calibrated within 24 hours prior to application by weight of 15 applications of water to six 86 mm ID petri dishes. The total weight of water over a known area enabled a simple calculation giving the volume rate to be made. The volume rate achieved was within the range specified in the study plan (200 L/Ha±10%).
(§6) Replication was 5 pots per treatment for each plant species. After application, pots were placed on the bench in glasshouse in randomized blocks. Plants were assessed for emergence, mortality and visual injury (expressed as a percentage of the untreated control: 0%=no injury, 1-39%=slight injury, 40-69%=moderate injury, 70-99%=severe injury and 100%=all plants dead) at 14 and 21 days after 50% emergence in the untreated controls. Fresh weights (biomass above soil level) were also recorded 21 days after 50% emergence in the untreated controls. Plants were fully turgid at the time of harvest.
(§7) Assessment data was recorded on pro-forma sheets and entered into Gylling ARM 7 software. EC50 values were calculated using audited means data from the final assessments (21 day). Gylling ARM 7.0 software used a simple probit—maximum likelihood estimation method with 99% confidence level. The EC50 values generated were then visually checked against the means data table to verify they appeared correct.

[2] = test system: Stellaria media; test: as above; settings: for Mean Final Foliar Fresh Weights Expressed as Percentage of Untreated Controls / Mean Final Foliar Fresh Weights: Stellaria media; for Mean Final Foliar Fresh Weights: 21 days after 50% emergence, untreated 1.44
Description: as §1, §2, §3, §4, §5, §6, §7

[3] = test system: Aperaspica-venti; test: Field trial in winter oilseed rape, pre-emergence, % control
Description: (§8) Field trials were conducted on various moncotyledonous weeds and dicotyledonous weeds and the effect of D-isomer of Napropamide was studied to understand the selective and effective control of dicotyledonous weeds over monocotyledonous weeds. The effect of D-isomer of Napropamide in comparison to racemic napropramide and untreated was studied, which is concluded hereinbelow:
(§9) Several small plot replicated trials were carried out to evaluate and/or compare the efficacy of D-Napropamide against a range of indicated annual broadleaved and grass weed species in the indicated crops. No problems were encountered during mixing or application of any of the product formulations or tank mixtures under test.
(§10) In each of the reported data, the homogeneity of variance was tested by Bartlett's test. Wherever this test indicated no homogeneity of variance, the transformed values were used for analysis of variance. Assessment data was then analyzed using a two-way analysis of variance (ANOVA) on untransformed and transformed data. The probability of no significant differences occurring between treatment means was calculated as the F probability value (p(F)). A mean comparison test was only performed and reported when the treatment of F that was calculated during analysis of variance was significant at the observed significance level specified for the mean comparison test. Where the data was transformed, treatment means in the reports were presented in their detransformed state, with the appropriate letter test and mean descriptions (LSD and standard deviation) derived from the transformed ANOVA.
(§11) Trials were conducted to evaluate the selectivity and efficacy of D-isomer of Napropamide when applied pre-emergence to oilseed rape crop. The % control of weed was assessed at regular intervals.

[4] = test system: Cirsium arvense; test: as above
Description: as §8, §9, §10, §11

[5] = test system: Fallopia convolvulus; test: as above
Description: as §8, §9, §10, §11

[6] = test system: Senecio vulgaris; test: as above
Description: as §8, §9, §10, §11

[7] = test system: Triticum aestivum; test: as above
Description: as §8, §9, §10, §11

[8] = test system: Veronica persica; test: as above
Description: as §8, §9, §10, §11

[9] = rate 0.1575 kg/Ha pre-emergence
[10] = monocotyledonous weeds (Poa annua EC50)
[11] = dicotyledonous weeds (Stellaria media EC50)
[12] = 450 g/L @ 1.6 L/Ha, listed as D Napropamide

CCN(CC)C(=O)[C@@H](C)Oc1cccc2ccccc12 [D-Napropamide, D-(−)-N,N-diethyl-2-(α-naphthoxy)propionamide]
EC50 based on the final fresh weights ([1]; Poa annua (monocot), 21 day assessment, probit): 0.44 kg/Ha | Mean Final Foliar Fresh Weights Expressed as Percentage of Untreated Controls ([1]; rate 0.1575 kg/Ha): 100% | Mean Final Foliar Fresh Weights [1, 9]: 0.93 g | Mean Final Foliar Fresh Weights Expressed as Percentage of Untreated Controls ([1]; rate 0.315 kg/Ha): 71% | Mean Final Foliar Fresh Weights ([1]; rate 0.315 kg/Ha pre-emergence): 0.64 g | Mean Final Foliar Fresh Weights Expressed as Percentage of Untreated Controls ([1]; rate 0.630 kg/Ha): 50% | Mean Final Foliar Fresh Weights ([1]; rate 0.63 kg/Ha pre-emergence): 0.45 g | more active than L-Napropamide [1, 10]: ~2.86 times | times more active than racemic Napropamide [1, 10]: about 1.63 times | EC50 based on the final fresh weights ([2]; Stellaria media (dicot), 21 day assessment, probit): 0.054 kg/Ha | Mean Final Foliar Fresh Weights Expressed as Percentage of Untreated Controls ([2]; rate 0.1575 kg/Ha): 35% | Mean Final Foliar Fresh Weights [2, 9]: 0.498 g | Mean Final Foliar Fresh Weights Expressed as Percentage of Untreated Controls ([2]; rate 0.315 kg/Ha): 14% | Mean Final Foliar Fresh Weights ([2]; rate 0.315 kg/Ha pre-emergence): 0.198 g | Mean Final Foliar Fresh Weights Expressed as Percentage of Untreated Controls ([2]; rate 0.630 kg/Ha): 12% | Mean Final Foliar Fresh Weights ([2]; rate 0.63 kg/Ha pre-emergence): 0.17 g | times more active than L-Napropamide [2, 11]: ~23.33 times | times more active than racemic Napropamide [2, 11]: about 4.07 times | Percentage Control at 63 DAA ([3]; 450 g/L @ 1.4 L/Ha): 35.00% | Percentage Control at 63 DAA ([3]; 450 g/L @ 1.6 L/Ha): 58.75% | Percentage Control at 63 DAA [3, 12]: 52.50% | Conclusion: efficacy in control vis-à-vis Napropamide at an equivalent dosage ([3]; Aperaspica-venti, monocot): poor efficacy | Percentage Control at 51 DAA ([4]; 450 g/L @ 1.6 L/Ha): 100.00% | Conclusion: control of the weed at equivalent dosage ([4]; Cirsium arvense, dicot): superior control | Percentage Control at 63 DAA ([5]; 450 g/L @ 1.6 L/Ha): 100.00% | Percentage Control at 63 DAA ([5]; 450 g/L @ 2.0 L/Ha): 100.00% | Conclusion: efficacy in control vis-à-vis Napropamide at an equivalent dosage ([5]; Fallopia convolvulus, dicot): superior efficacy | Percentage Control at 214 DAA [6, 12]: 82.15% and 94.72% | Conclusion: efficacy in control vis-à-vis Napropamide at an equivalent dosage ([6]; Senecio vulgaris, dicot): superior efficacy | Percentage Control at 51 DAA ([7]; 450 g/L @ 1.4 L/Ha): 0.00% | Percentage Control at 72 DAA ([7]; 450 g/L @ 1.4 L/Ha): 0.00% | Percentage Control at 51 DAA ([7]; 450 g/L @ 1.6 L/Ha): 0.00% | Percentage Control at 72 DAA ([7]; 450 g/L @ 1.6 L/Ha): 0.00% | Percentage Control at 51 DAA ([7]; 450 g/L @ 1.8 L/Ha): 0.00% | Percentage Control at 72 DAA ([7]; 450 g/L @ 1.8 L/Ha): 0.00% | Percentage Control at 51 DAA ([7]; 450 g/L @ 2.0 L/Ha): 0.00% | Percentage Control at 72 DAA ([7]; 450 g/L @ 2.0 L/Ha): 0.00% | Conclusion: control of the weed ([7]; Triticum aestivum, monocot): negligible control | Percentage Control at 63 DAA ([8]; 450 g/L @ 1.4 L/Ha): 100.00% | Percentage Control at 63 DAA ([8]; 450 g/L @ 1.6 L/Ha): 100.00% | Conclusion: efficacy in control vis-à-vis Napropamide at an equivalent dosage ([8]; Veronica persica, dicot): superior efficacy

— patent US9307765B2, “Selective weed control using D-napropamide” (UPL Limited, priority 2013, dated 2016)
